“Also recorded” adds a separate entry of the source.
How the values were obtained:
[1] = test system: plasma cortisol; assay: Plasma cortisol concentrations in piglets after processing (castration, tail docking, teeth clipping); assay type: in vivo, swine
Protocol: Castration, teeth clipping, and tail docking were completed for each male piglet between the 6-h and 8-h blood collection time points. […] Castration was performed using a number 10 scalpel blade to making two vertical incisions approximately 2-3 cm long in the skin covering the testicles. The testicles were then marsupialized, and manual pressure was applied to the spermatic cord until it separated from the piglet's body. Side-cutter pliers were used to remove the tail at the 6th coccygeal vertebral body, and the canine teeth were filed flush with the gingival tissue.
To accommodate blood volume restrictions, blood samples for cortisol determination were collected from three randomly selected piglets/litter (two male and one female piglet at each time point) prior to processing (6 h after firocoxib injection in the sow) and after processing at approximately […] after drug injection in the sow. These time points corresponded to approximately 0, 2, 6, 18, 42, 66 and 90 h after processing. The blood for cortisol analysis was collected in 3-mL heparinized blood collection tubes (BD Vacutainer, Franklin Lakes, N.J.) and then centrifuged for 10 min at 1,500×g. The plasma was collected, then immediately frozen and stored at −80° C. The analyses for plasma cortisol concentrations were performed within 60 d after sample collection and within 10 consecutive days once the analyses were started. Plasma cortisol concentrations were determined using a commercial radioimmunoassay kit (CortiCote I-125, MP Biomedicals, Santa Ana, Calif.). […]
Plasma cortisol concentrations and ADG were analyzed using a nonlinear mixed-effects analysis incorporating both fixed effects and random effects (PROC GLMMIX; SAS university edition v9.04.01, SAS Institute, Cary, N.C.). […]
To account for the fact that not all the piglets were blood sampled at every time point due to blood volume restrictions in piglets, individual piglet peak cortisol concentrations (CortCmax) were calculated for each piglet after processing by visual inspection of the data. […]

[2] = Necropsy and histopathology examination of nursing piglets at 21 d; assay type: in vivo, swine; conditions: for Kidney: Mild tubular ectasia (number of piglets) / Kidney: Moderate ectasia (number of piglets) / Kidney: Prominent ectasia (number of piglets) / Kidney: Rare tubular ectasia (number of piglets) / Kidney: Within normal limits (number of piglets) / Liver: Within normal limits (number of piglets) / Small Intestine: Within normal limits (number of piglets) / Stomach: Mild gastritis (number of piglets) / Stomach: Mild vasculitis, muscle layer (number of piglets) / Stomach: Within normal limits (number of piglets): nursing piglets, 21 d
Protocol: Thereafter, sows and piglets in all groups were humanely euthanized and examined for macroscopic signs of NSAID toxicity. Necropsies were performed on all animals to inspect for macroscopic signs of NSAID toxicity. Samples of kidney, liver, small intestine and stomach were sectioned into 0.5-1 cm slices and placed in plastic jars containing 10% buffered formalin in a 10:1 formalin:tissue ratio for histopathology examination.
Formalin-fixed sections of kidney, liver, small intestine and stomach from sows and 3 piglets/litter were trimmed and positioned in cassettes loaded into an automated tissue processor (Sakura VIP 5, Sakura Finetek, Torrance, Calif.) for overnight paraffin infiltration. Processed tissues in cassettes were then placed in a paraffin bath (Sakura Tissue-Tek TEC 5, Sakura Finetek, Torrance, Calif.) after which they were removed from the cassette and oriented in molds. […] Tissue sections were cut at 4 microns from the cooled blocks. Paraffin ribbons with tissue were then laid out on a water bath and the floating tissue sections were collected onto microscope slides. The unstained tissue sections were then mounted on the slide and dried at 60° C. for 20 minutes. Finally, the tissue was deparaffinized and rehydrated for staining by transfer through xylene and a series of decreasing concentrations of alcohol to hematoxylin on an automated stainer (Sakura Tissue-Tek Prisma, Sakura Finetek, Torrance, Calif.). After a tap water rinse, the tissue on the slide was counterstained with eosin, dehydrated in an alcohol series, cleared in xylene and cover slipped (Sakura Tissue-Tek Glas g2) prior to histological examination by a veterinary diagnostician with experience in the histological examination of swine tissues.

CC1(C)OC(=O)C(OCC2CC2)=C1c1ccc(S(C)(=O)=O)cc1 [firocoxib]
mean plasma cortisol concentration at 2±1 h after processing ([1]; male piglets, sow dose 2.0 mg/kg vs 0.5 mg/kg (P=0.0397) and 1.0 mg/kg (P=0.0416)): lower mean plasma cortisol concentration
peak plasma cortisol of individual piglets (CortCmax) ([1]; male piglets, 0.5 mg/kg (P=0.014) and 1.5 mg/kg (P=0.05) groups higher than 2.0 mg/kg): significant treatment effect
plasma cortisol concentrations after processing, dose dependence ([1]; piglets nursing sows given 0.5-2.0 mg/kg IM): reduces plasma cortisol concentrations after processing in a dose-dependent manner; also recorded: dose-dependent reduction of plasma cortisol concentrations
Kidney: Mild tubular ectasia (number of piglets) ([2]; sow dose 0.5 mg/kg IM): 5
Kidney: Moderate ectasia (number of piglets) ([2]; sow dose 0.5 mg/kg IM): 0
Kidney: Prominent ectasia (number of piglets) ([2]; sow dose 0.5 mg/kg IM): 5
Kidney: Rare tubular ectasia (number of piglets) ([2]; sow dose 0.5 mg/kg IM): 1
Kidney: Within normal limits (number of piglets) ([2]; sow dose 0.5 mg/kg IM): 1
Liver: Within normal limits (number of piglets) ([2]; sow dose 0.5 mg/kg IM): 12
Small Intestine: Within normal limits (number of piglets) ([2]; sow dose 0.5 mg/kg IM): 12
Stomach: Mild gastritis (number of piglets) ([2]; sow dose 0.5 mg/kg IM): 5
Stomach: Mild vasculitis, muscle layer (number of piglets) ([2]; sow dose 0.5 mg/kg IM): 2
Stomach: Within normal limits (number of piglets) ([2]; sow dose 0.5 mg/kg IM): 5
Kidney: Mild tubular ectasia (number of piglets) ([2]; sow dose 1.0 mg/kg IM): 9
Kidney: Moderate ectasia (number of piglets) ([2]; sow dose 1.0 mg/kg IM): 0
Kidney: Prominent ectasia (number of piglets) ([2]; sow dose 1.0 mg/kg IM): 0
Kidney: Rare tubular ectasia (number of piglets) ([2]; sow dose 1.0 mg/kg IM): 1
Kidney: Within normal limits (number of piglets) ([2]; sow dose 1.0 mg/kg IM): 2
Liver: Within normal limits (number of piglets) ([2]; sow dose 1.0 mg/kg IM): 12
Small Intestine: Within normal limits (number of piglets) ([2]; sow dose 1.0 mg/kg IM): 12
Stomach: Mild gastritis (number of piglets) ([2]; sow dose 1.0 mg/kg IM): 6
Stomach: Mild vasculitis, muscle layer (number of piglets) ([2]; sow dose 1.0 mg/kg IM): 2
Stomach: Within normal limits (number of piglets) ([2]; sow dose 1.0 mg/kg IM): 4
Kidney: Mild tubular ectasia (number of piglets) ([2]; sow dose 1.5 mg/kg IM): 9
Kidney: Moderate ectasia (number of piglets) ([2]; sow dose 1.5 mg/kg IM): 0
Kidney: Prominent ectasia (number of piglets) ([2]; sow dose 1.5 mg/kg IM): 3
Kidney: Rare tubular ectasia (number of piglets) ([2]; sow dose 1.5 mg/kg IM): 0
Kidney: Within normal limits (number of piglets) ([2]; sow dose 1.5 mg/kg IM): 0
Liver: Within normal limits (number of piglets) ([2]; sow dose 1.5 mg/kg IM): 12
Small Intestine: Within normal limits (number of piglets) ([2]; sow dose 1.5 mg/kg IM): 12
Stomach: Mild gastritis (number of piglets) ([2]; sow dose 1.5 mg/kg IM): 6
Stomach: Mild vasculitis, muscle layer (number of piglets) ([2]; sow dose 1.5 mg/kg IM): 3
Stomach: Within normal limits (number of piglets) ([2]; sow dose 1.5 mg/kg IM): 3
Kidney: Mild tubular ectasia (number of piglets) ([2]; sow dose 2.0 mg/kg IM): 5
Kidney: Moderate ectasia (number of piglets) ([2]; sow dose 2.0 mg/kg IM): 1
Kidney: Prominent ectasia (number of piglets) ([2]; sow dose 2.0 mg/kg IM): 3
Kidney: Rare tubular ectasia (number of piglets) ([2]; sow dose 2.0 mg/kg IM): 0
Kidney: Within normal limits (number of piglets) ([2]; sow dose 2.0 mg/kg IM): 3
Liver: Within normal limits (number of piglets) ([2]; sow dose 2.0 mg/kg IM): 12
Small Intestine: Within normal limits (number of piglets) ([2]; sow dose 2.0 mg/kg IM): 12
Stomach: Mild gastritis (number of piglets) ([2]; sow dose 2.0 mg/kg IM): 2
Stomach: Mild vasculitis, muscle layer (number of piglets) ([2]; sow dose 2.0 mg/kg IM): 1
Stomach: Within normal limits (number of piglets) ([2]; sow dose 2.0 mg/kg IM): 9
kidneys with ectatic tubules (number) ([2]; piglets, all treatment groups): 10
sections of stomach lining with mild gastritis (number) ([2]; piglets, all treatment groups): 19
